The text below walks through data of US10702526B2, “Inhibitors of immune checkpoint modulators and related methods” (eFFECTOR Therapeutics, Inc., priority 2015, dated 2020).

“Also recorded” adds a separate entry of the source.

One series deals with Jurkat cells. Nature of the series: Jurkat T cell viability (fixable dead cell stain). In kind it is cell-based. As to the method: (§1) To examine the effect of MNK-specific inhibitors on PD-1 expression, Jurkat cells (Clone E6.1, ATCC, transformed T cells) were used, which express PD-1 when activated through T cell receptor (TCR) signaling. Briefly, Jurkat cells were grown in 1×RPMI with 1× Pen/Strep, and 10% FBS, then about 3×10^6 Jurkat cells were activated in presence of 1 μg/mL PHA (Sigma) and 50 ng/mL PMA (Sigma). Test Cells were treated simultaneously with various concentrations of MNK-specific inhibitor Compound 107 (0, 0.01, 0.1, 1, 3 and 10 μM). After 48 hours, culture supernatants were harvested and examined via sandwich ELISA for the presence of IL-2 using human IL-2 ELISA DuoSet® (R&D Systems, Minneapolis, Minn.). The level of PD-1 on Jurkat cells was examined by incubating cells with fixable dead cell stain (1:20,000; BD Biosciences, San Jose, Calif.) for 15 minutes at 4° C., washed twice with flow staining buffer (1×PBS, 4% FBS and 1 mM EDTA), incubated with human FcR block, then contacted with allophycocyanin (APC) conjugated anti-PD-1 antibody (Biolegend, San Diego, Calif.) for 30 minutes at 4° C., washed two times with flow buffer, and finally cells were fixed with fixation buffer for 20 minutes at 4° C. After fixation, cells were washed twice with flow buffer and re-suspended in flow buffer and assessed for fluorescence using BD Accuri C6 flow cytometer. Data were analyzed using the C6 cytometer software (BD Biosciences, San Jose, Calif.).

Series [1] concerns LAG3 expression on human Pan-T cells. The experiment in a line: LAG3 expression on primary T cells activated with anti-CD3/anti-CD28 beads (flow cytometry). It is filed as cell-based. The procedure: (§2) About 3×10^5 T cells were activated using anti-CD3/anti-CD28 magnetic beads as per manufacturer's protocol (Dynabeads®, Invitrogen, Carlsbad, Calif.). Briefly, a ratio of fresh primary T cells to beads used to activate the T cells was 1:1 (for every 80,000 T cells, 2 μl of beads were added). Test cells were treated simultaneously with various concentrations of MNK-specific inhibitor Compound 107 (0.01, 0.1, 1, 3 and 10 μM). After 48 hours, culture supernatants were harvested and examined via sandwich ELISA for the presence of IL-2 using human IL-2 ELISA DuoSet® (R&D Systems, Minneapolis, Minn.). […] After fixation, cells were washed twice with flow buffer and re-suspended in flow buffer and assessed for fluorescence using BD Accuri C6 cytometer. Data were analyzed using the C6 cytometer software (BD Biosciences, San Jose, Calif.).

A further series deals with phospho-eIF4E. Nature of the series: eIF4E phosphorylation in TMD8 cells (Western blot). In kind it is cell-based, human. As to the method: (§3) The ability of MNK-specific inhibitor compounds to regulate the level of HLA class II proteins was evaluated in a diffuse large B-cell lymphoma (DLBCL) cell line, TMD8. Briefly, human DLBCL cell line TMD8 (ATCC), was cultured in RPMI media supplemented with penicillin G (100 U/ml), streptomycin (100 μg/ml), and 10% FBS in a humidified atmosphere of 5% CO2 maintained at 37° C. About 2-4×10^6 TMD8 cells were seeded in 10 cm plates 24 hours prior to drug treatment. The following day, cells were treated with either vehicle control (DMSO) or Compound 107 at the indicated concentration (FIG. 7). Cells were harvested 48 hours post-treatment.
(§4) Treated cells were harvested, washed with PBS and lysed in 1×RIPA buffer (Thermo Fisher) for 15 minutes at 4° C. Lysates were clarified by centrifugation for 15 min at 14,000×rpm and supernatants were collected. Protein concentration in the soluble fraction was determined using the BCA protein assay (Thermo Scientific). Proteins were resolved on 4-20% Bis-Tris gradient polyacrylamide gel (Invitrogen) and transferred to nitrocellulose membrane. […] The blots were washed, scanned, and specific proteins detected using the LI-COR Odyssey infrared imager. […]

For series [2], the system named is PD-1 expression on Jurkat cells. The experiment in a line: PD-1 expression on PHA/PMA-activated Jurkat T cells (flow cytometry). In kind it is cell-based, human. As to the method: as §1
Series [3] deals with HLA class II protein HLA-DQA1. Nature of the series: HLA-DQA1 protein level in TMD8 cells (Western blot). In kind it is cell-based, human. As to the method: as §3, §4
A further series concerns primary T cells. The experiment in a line: Primary T cell viability (fixable dead cell stain). It is filed as cell-based. The following applies: T cells activated with anti-CD3/anti-CD28 beads. The procedure: as §2
In a further series the test system is PD-L1. Nature of the series: PD-L1 expression in tumor cell lines (Western blot). It is filed as cell-based, human. The following applies: MDA-MB-231, HBL-1, A549, MDA-MB-361, AMO-1; 0.01-10 μM, 48 hours, vs DMSO.
Where [4] appears, read: Jurkat T cell assay, MNK-specific inhibitors.

For the molecule `Cc1cc(Nc2cc(N)ncn2)c(=O)n2c1C(=O)NC21CCCCC1.Cl` [Compound 107], the “Cell Death” value in the series on Jurkat cells (setting [4]) is given as “− (− = 0-10%)”. Besides, the “cell viability (percentage of dead cells)” value in the series on Jurkat cells (Jurkat cells with PHA and PMA) is “no effect on cell viability; also recorded: unaffected”. Moreover, the “reduction in the expression of LAG3” value in series [1] (CD3/CD28 antibody bead activated T cells, 10 μM) was determined as 62%. Moreover, the LAG3 expression result in series [1] (primary T cells, anti-CD3/anti-CD28 beads, 0.01-10 μM) is “reduced in a dose dependent manner”. Further, the “phosphorylation of eIF4E” value in the series with phospho-eIF4E is listed as “potently inhibited”. In addition, the “% PD-1 + Inhibition” value in series [2] (setting [4]) was “+++ (+++ = 50-75%)”. Moreover, the PD-1 expression result in series [2] (Jurkat cells with PHA and PMA, 0.01, 0.1, 1, 3 and 10 μM) is “reduced in a dose dependent manner”. The “reduction in the expression of PD-1 as compared to control” value in series [2] (PHA/PMA activated Jurkat T cells, highest concentration, 48 hours) is reported as no more than 50%. Also, in series [3] (Homo sapiens, TMD8, 48 h, read-out: EC50 of increase in HLA-DQA1 protein level), the EC50 is roughly 0.3 µM. Further, in series [3] (TMD8 cells, 48 hours, 300 nM or 10 μM), the HLA-DQA1 protein level entry was “dose dependent increase”. Besides, the “T cell viability (percentage of dead cells)” value in the series on primary T cells is “no effect on T cell viability; also recorded: unaffected”. In addition, the “expression of PD-L1” value with PD-L1 is “reduced in a dose dependent manner”.
